This test deals with IL-13 induced pSTAT6 in BEAS-2B human cell line. The experiment in a line: Inhibition of IL-13 induced pSTAT6 in BEAS. Type of test: cell-based. As to conditions: IL-13 induced pSTAT6, BEAS-2B cells, ELISA. The procedure: BEAS-2B human cell line was seeded (100.000 cells/well) and incubated for 48 h at 37° C., 5% CO2, 95% humidity. Compounds were added and incubated 30 min followed by IL-13 as trigger. After 30 min incubation, cells were lysed and pSTAT6 determined by Fastscan phospho-stat6 (Tyr641) sandwich ELISA kit (cell signaling). Inhibitors were tested at 11 consecutive […] dilutions starting from 10 μM (10 μM-40 pM) in duplicate. Calculation of IC50 data, curves and QC analysis were made using Excel tools and GraphPadPrism software. QC criteria parameters: Z′≥0.35, Hill Slope range 0.5 to 5, S:B>2.
Background: ELISA stands for enzyme-linked immunosorbent assay.

Usually IC50 stands for the concentration that gives 50% inhibition. Read a high IC50 as a need for much substance.

The structures appear in SMILES notation.

Turning to `COc1cc2c(cc1-n1nc(C(=O)NCCN3CCC(C(=O)N(C)C)CC3)c3cnc(-c4cnn5cccnc45)cc31)OCCN2` [Example 53, N-(2-(4-(dimethylcarbamoyl)piperidin-1-yl)ethyl)-1-(6-methoxy-3,4-dihydro-2H-benzo[b][1,4]oxazin-7-yl)-6-(pyrazolo[1,5-a]pyrimidin-3-yl)-1H-pyrazolo[4,3-c]pyridine-3-carboxamide], the IC50 is 5.01 to 50.1 nM.

Consider `COc1cc2c(cc1-n1nc(NCCN(C)C)c3cnc(-c4cnn5cccnc45)cc31)OCCN2` [Example 54, N1-(1-(6-methoxy-3,4-dihydro-2H-benzo[b][1,4]oxazin-7-yl)-6-(pyrazolo[1,5-a]pyrimidin-3-yl)-1H-pyrazolo[4,3-c]pyridin-3-yl)-N2,N2-dimethylethane-1,2-diamine], for which the IC50 is 5.01 to 50.1 nM.

Compound `CNc1nn(-c2cc3c(cc2OC)NCCO3)c2cc(-c3cnn4cccnc34)ncc12` [Example 55, 1-(6-methoxy-3,4-dihydro-2H-benzo[b][1,4]oxazin-7-yl)-N-methyl-6-(pyrazolo[1,5-a]pyrimidin-3-yl)-1H-pyrazolo[4,3-c]pyridin-3-amine] had an IC50 of 5.01 to 50.1 nM.

For `COC(=O)Nc1nn(-c2cc3c(cc2OC)NCCO3)c2cc(-c3cnn4cccnc34)ncc12` [Example 56, methyl (1-(6-methoxy-3,4-dihydro-2H-benzo[b][1,4]oxazin-7-yl)-6-(pyrazolo[1,5-a]pyrimidin-3-yl)-1H-pyrazolo[4,3-c]pyridin-3-yl)carbamate], the IC50 is 5.01 to 50.1 nM.

Compound `COc1cc2c(cc1-n1nc(NC(=O)OCCN(C)C)c3cnc(-c4cnn5cccnc45)cc31)OCCN2` [Example 57, 2-(dimethylamino)ethyl (1-(6-methoxy-3,4-dihydro-2H-benzo[b][1,4]oxazin-7-yl)-6-(pyrazolo[1,5-a]pyrimidin-3-yl)-1H-pyrazolo[4,3-c]pyridin-3-yl)carbamate] gave an IC50 of 5.01 to 50.1 nM.

With `COc1cc2c(cc1-n1nc(NC(=O)OCCN3CCOCC3)c3cnc(-c4cnn5cccnc45)cc31)OCCN2` [Example 58, 2-morpholinoethyl (1-(6-methoxy-3,4-dihydro-2H-benzo[b][1,4]oxazin-7-yl)-6-(pyrazolo[1,5-a]pyrimidin-3-yl)-1H-pyrazolo[4,3-c]pyridin-3-yl)carbamate], the IC50 is 5.01 to 50.1 nM.

As for `COc1cc2c(cc1-n1nc(NC(=O)OCCCN3CCN(C)CC3)c3cnc(-c4cnn5cccnc45)cc31)OCCN2` [Example 59, 3-(4-methylpiperazin-1-yl)propyl (1-(6-methoxy-3,4-dihydro-2H-benzo[b][1,4]oxazin-7-yl)-6-(pyrazolo[1,5-a]pyrimidin-3-yl)-1H-pyrazolo[4,3-c]pyridin-3-yl)carbamate], the IC50 is 5.01 to 50.1 nM.

Compound `COc1cc2c(cc1-n1nc(NC(=O)OCCCN(C)C)c3cnc(-c4cnn5cccnc45)cc31)OCCN2` [Example 60, 3-(dimethylamino)propyl (1-(6-methoxy-3,4-dihydro-2H-benzo[b][1,4]oxazin-7-yl)-6-(pyrazolo[1,5-a]pyrimidin-3-yl)-1H-pyrazolo[4,3-c]pyridin-3-yl)carbamate] had an IC50 of 5.01 to 50.1 nM.

Regarding `COc1cc2c(cc1-n1nc(NC(=O)OCCCN3CCOCC3)c3cnc(-c4cnn5cccnc45)cc31)OCCN2` [Example 61, 3-morpholinopropyl (1-(6-methoxy-3,4-dihydro-2H-benzo[b][1,4]oxazin-7-yl)-6-(pyrazolo[1,5-a]pyrimidin-3-yl)-1H-pyrazolo[4,3-c]pyridin-3-yl)carbamate], the IC50 is 5.01 to 50.1 nM.

For the compound `COc1cc2c(cc1-n1nc(NC(=O)OCCN3CCS(=O)(=O)CC3)c3cnc(-c4cnn5cccnc45)cc31)OCCN2` [Example 62, 2-(1,1-dioxidothiomorpholino)ethyl (1-(6-methoxy-3,4-dihydro-2H-benzo[b][1,4]oxazin-7-yl)-6-(pyrazolo[1,5-a]pyrimidin-3-yl)-1H-pyrazolo[4,3-c]pyridin-3-yl)carbamate], the half-maximal inhibitory concentration (IC50) was 5.01 to 50.1 nM.

For `COc1cc2c(cc1-n1nc(NC(=O)OCCN3CCN(C)CC3)c3cnc(-c4cnn5cccnc45)cc31)OCCN2` [Example 63, 2-(4-methylpiperazin-1-yl)ethyl (1-(6-methoxy-3,4-dihydro-2H-benzo[b][1,4]oxazin-7-yl)-6-(pyrazolo[1,5-a]pyrimidin-3-yl)-1H-pyrazolo[4,3-c]pyridin-3-yl)carbamate], the IC50 is 5.01 to 50.1 nM.

For the compound `COc1cc2c(cc1-n1nc(NC(=O)OCCN3CCSCC3)c3cnc(-c4cnn5cccnc45)cc31)OCCN2` [Example 64, 2-thiomorpholinoethyl (1-(6-methoxy-3,4-dihydro-2H-benzo[b][1,4]oxazin-7-yl)-6-(pyrazolo[1,5-a]pyrimidin-3-yl)-1H-pyrazolo[4,3-c]pyridin-3-yl)carbamate], the half-maximal inhibitory concentration (IC50) is 5.01 to 50.1 nM.

For `COc1cc2c(cc1-n1nc(NC(=O)OC[C@@H]3CN(C)CCO3)c3cnc(-c4cnn5cccnc45)cc31)OCCN2` [Example 65, (S)-(4-methylmorpholin-2-yl)methyl (1-(6-methoxy-3,4-dihydro-2H-benzo[b][1,4]oxazin-7-yl)-6-(pyrazolo[1,5-a]pyrimidin-3-yl)-1H-pyrazolo[4,3-c]pyridin-3-yl)carbamate], the IC50 was 5.01 to 50.1 nM.

With `COc1cc2c(cc1-n1nc(NC(=O)OCCN3CCCCC3)c3cnc(-c4cnn5cccnc45)cc31)OCCN2` [Example 66, 2-(piperidin-1-yl)ethyl (1-(6-methoxy-3,4-dihydro-2H-benzo[b][1,4]oxazin-7-yl)-6-(pyrazolo[1,5-a]pyrimidin-3-yl)-1H-pyrazolo[4,3-c]pyridin-3-yl)carbamate], the IC50 was 5.01 to 50.1 nM.

As for `COc1cc2c(cc1-n1nc(NC(=O)OCCSC3CCOC3=O)c3cnc(-c4cnn5cccnc45)cc31)OCCN2` (stereo not shown) [Example 67, 2-((2-oxotetrahydrofuran-3-yl)thio)ethyl (1-(6-methoxy-3,4-dihydro-2H-benzo[b][1,4]oxazin-7-yl)-6-(pyrazolo[1,5-a]pyrimidin-3-yl)-1H-pyrazolo[4,3-c]pyridin-3-yl)carbamate], the IC50 was 5.01 to 50.1 nM.

Turning to `COc1cc2c(cc1-n1nc(NC(=O)OCCNC3CCOC3=O)c3cnc(-c4cnn5cccnc45)cc31)OCCN2` (stereo not shown) [Example 68, 2-((2-oxotetrahydrofuran-3-yl)amino)ethyl (1-(6-methoxy-3,4-dihydro-2H-benzo[b][1,4]oxazin-7-yl)-6-(pyrazolo[1,5-a]pyrimidin-3-yl)-1H-pyrazolo[4,3-c]pyridin-3-yl)carbamate], the IC50 was 5.01 to 50.1 nM.

In turn, `COc1cc2c(cc1-n1nc(NC(=O)OCCN(C)C)c3cnc(-c4cnn5cccnc45)cc31)CCCN2` [Example 69, 2-(dimethylamino)ethyl (1-(7-methoxy-1,2,3,4-tetrahydroquinolin-6-yl)-6-(pyrazolo[1,5-a]pyrimidin-3-yl)-1H-pyrazolo[4,3-c]pyridin-3-yl)carbamate] had an IC50 of 5.01 to 50.1 nM.

The compound `COc1cc2c(cc1-n1nc(NC(=O)NCCCN3CCOCC3)c3cnc(-c4cnn5cccnc45)cc31)OCCN2` [Example 70, 1-(1-(6-methoxy-3,4-dihydro-2H-benzo[b][1,4]oxazin-7-yl)-6-(pyrazolo[1,5-a]pyrimidin-3-yl)-1H-pyrazolo[4,3-c]pyridin-3-yl)-3-(3-morpholinopropyl)urea] had a concentration for half-maximal inhibition (IC50) of 5.01 to 50.1 nM.

`COc1cc2c(cc1-n1nc(C)c3cnc(-c4cnn5cccnc45)cc31)C1(CC1)C(=O)N2` [Example 71, 6′-methoxy-5′-(3-methyl-6-(pyrazolo[1,5-a]pyrimidin-3-yl)-1H-pyrazolo[4,3-c]pyridin-1-yl)spiro[cyclopropane-1,3′-indolin]-2′-one] showed an IC50 of 5.01 to 50.1 nM.

On to `COc1cc2[nH]c(=O)oc2cc1-n1nc(NCCN2CCOCC2)c2cnc(-c3cnn4cccnc34)cc21` [Example 72, 5-methoxy-6-(3-((2-morpholinoethyl)amino)-6-(pyrazolo[1,5-a]pyrimidin-3-yl)-1H-pyrazolo[4,3-c]pyridin-1-yl)benzo[d]oxazol-2(3H)-one], for which the IC50 was 50.1 to 501 nM.

In the case of `COc1cc2c(cc1-n1nc(C(=O)NCCCN(C)C)c3cnc(-c4cnc5cccnn45)cc31)OCCN2` [Example 73, N-(3-(dimethylamino)propyl)-6-(imidazo[1,2-b]pyridazin-3-yl)-1-(6-methoxy-3,4-dihydro-2H-benzo[b][1,4]oxazin-7-yl)-1H-pyrazolo[4,3-c]pyridine-3-carboxamide], the IC50 was 5.01 to 50.1 nM.

With `COc1cc2c(cc1-n1nc(NCCN(C)C)c3cnc(Nc4ncc[nH]c4=O)cc31)OCCN2` [Example 74, 3-((3-((2-(dimethylamino)ethyl)amino)-1-(6-methoxy-3,4-dihydro-2H-benzo[b][1,4]oxazin-7-yl)-1H-pyrazolo[4,3-c]pyridin-6-yl)amino)pyrazin-2(1H)-one], the IC50 is 50.1 to 501 nM.

As to `COc1cc2c(cc1-n1nc(C(=O)NCCCN(C)C)c3cnc(Nc4ncc[nH]c4=O)cc31)OCCN2` [Example 75, N-(3-(dimethylamino)propyl)-1-(6-methoxy-3,4-dihydro-2H-benzo[b][1,4]oxazin-7-yl)-6-((3-oxo-3,4-dihydropyrazin-2-yl)amino)-1H-pyrazolo[4,3-c]pyridine-3-carboxamide], the IC50 is 50.1 to 501 nM.

As for `COc1cc2c(cc1-n1nc(C(=O)NCCCN3CCC(F)(F)CC3)c3cnc(Nc4ncc[nH]c4=O)cc31)OCCN2` [Example 76, N-(3-(4,4-difluoropiperidin-1-yl)propyl)-1-(6-methoxy-3,4-dihydro-2H-benzo[b][1,4]oxazin-7-yl)-6-((3-oxo-3,4-dihydropyrazin-2-yl)amino)-1H-pyrazolo[4,3-c]pyridine-3-carboxamide], the IC50 was 5.01 to 50.1 nM.

`COc1cc2c(cc1-n1nc(C(=O)NCCN3CC(=O)OC(C)(C)C3)c3cnc(-c4cnn5cccnc45)cc31)OCCN2` [Example 77, N-(2-(2,2-dimethyl-6-oxomorpholino)ethyl)-1-(6-methoxy-3,4-dihydro-2H-benzo[b][1,4]oxazin-7-yl)-6-(pyrazolo[1,5-a]pyrimidin-3-yl)-1H-pyrazolo[4,3-c]pyridine-3-carboxamide] had an IC50 of 5.01 to 50.1 nM.

The record behind these values is patent publication US20260085077A1, “HETEROCYCLIC DERIVATIVES AS JANUS KINASE INHIBITORS” (CHIESI FARMACEUTICI S.P.A., priority 2022, published 2026).
